A short description of assay [1]: Inhibition of tRNA-guanine transglycosylase (unknown origin) assessed as Gibbs free enthalpy at 25 degC at 200 to 300 uM by isothermal titration calorimetry. In general terms: ITC needs no label: the signal is the heat of the interaction.
Assay [2] in a line: Inhibition of tRNA-guanine transglycosylase (unknown origin) assessed as buffer-corrected enthalpy values at 25 degC at 200 to 300 uM by isothermal titration calorimetry.
Assay [3] is described as follows: Inhibition of tRNA-guanine transglycosylase (unknown origin) assessed as entropy at 25 degC at 200 to 300 uM by isothermal titration calorimetry.

In the case of `O=c1[nH]cnc2cc3nc(NCCN4CCOCC4)[nH]c3cc12`, in assay [1], the deltaG was -8.77 kcal/mol. Also, in assay [2], the deltaH was -11.7 kcal/mol. Besides, in assay [3], the -TdeltaS came out at 2.92 kcal/mol.

In the case of `O=c1[nH]cnc2cc3[nH]c(NCCN4CCCCC4)nc3cc12`, the deltaG in assay [1] was -8.72 kcal/mol. The deltaH in assay [2] is -12.1 kcal/mol. In assay [3], the -TdeltaS was found to be 3.37 kcal/mol.

As for `Nc1nc2cc3nc(NCc4cccs4)[nH]c3cc2c(=O)[nH]1`, in assay [1], the deltaG is -9.49 kcal/mol. The deltaH in assay [2] was -15.8 kcal/mol. In addition, in assay [3], the -TdeltaS was determined as 6.36 kcal/mol.

`CNc1nc2cc3c(=O)[nH]cnc3cc2[nH]1`: the deltaG in assay [1] is -8.72 kcal/mol. For the same molecule, the deltaH in assay [2] was -11.4 kcal/mol. The -TdeltaS in assay [3] came to 2.68 kcal/mol.

Take `Nc1nc2cc3[nH]c(NCCN4CCCCC4)nc3cc2c(=O)[nH]1`: the deltaG in assay [1] was -10.2 kcal/mol. The deltaH in assay [2] is -18.9 kcal/mol. Further, the -TdeltaS in assay [3] is 8.68 kcal/mol.

For the molecule `O=c1[nH]cnc2cc3nc(NCc4cccs4)[nH]c3cc12`, the deltaG in assay [1] is -7.89 kcal/mol. Besides, in assay [2], the deltaH was -10.1 kcal/mol. Besides, in assay [3], the -TdeltaS amounted to 2.17 kcal/mol.

For `CNc1nc2cc3c(=O)[nH]c(N)nc3cc2[nH]1`, the deltaG in assay [1] was -9.94 kcal/mol. The deltaH in assay [2] was -23.3 kcal/mol. In addition, in assay [3], the -TdeltaS is 13.3 kcal/mol.

Turning to `Nc1nc2cc3[nH]c(NCCN4CCOCC4)nc3cc2c(=O)[nH]1`, the deltaG in assay [1] is -10.2 kcal/mol. Besides, in assay [2], the deltaH is -23 kcal/mol. Further, in assay [3], the -TdeltaS stood at 12.9 kcal/mol.

The record behind these values is ChEMBL document CHEMBL3297655, “Beyond affinity: enthalpy-entropy factorization unravels complexity of a flat structure-activity relationship for inhibition of a tRNA-modifying enzyme” (J Med Chem, 2014).
